This is an account of results in ChEMBL document CHEMBL4610028, “Variegatic acid from the edible mushroom Tylopilus ballouii inhibits TNF-α production and PKCβ1 activity in leukemia cells” (Bioorg Med Chem Lett, 2020).

Assay [1] has as its target T1, Protein kinase C beta type (Rattus norvegicus, UniProt P68403). Description: Inhibition of PKCbeta in rat RBL2H3 cells assessed as inhibition of anti-DNP IgE-stimulated TNFalpha release preincubated for 15 mins followed by mouse anti-DNP IgE stimulation and measured after 3 hrs by ELISA. The class given is cell-based, RBL-2H3. In general terms: An ELISA detects its analyte on a solid surface through an enzyme-linked reagent.

In assay [2] the target is T1, Protein kinase C beta type. The assay is described as follows: Inhibition of PKCbeta in rat RBL2H3 cells assessed as inhibition of ionomycin-stimulated TNFalpha release preincubated for 15 mins followed by ionomycin stimulation and measured after 3 hrs by ELISA. The class given is cell-based, RBL-2H3.
In assay [3] the target is T1, Protein kinase C beta type. The assay is described as follows: Inhibition of PKCbeta in rat RBL2H3 cells assessed as inhibition of ionomycin-stimulated beta-hexosaminidase release preincubated for 15 mins followed by ionomycin stimulation and measured after 3 hrs by 4-nitropheny1-2-acetamide-2-deoxy-beta-glucopyranoside substrate based colorimetric method. The class given is cell-based, RBL-2H3.

Assay [4] deals with Protein kinase C beta type (Homo sapiens, UniProt P05771). The assay is described as follows: Inhibition of recombinant full-length N-temrinal GST-tagged human PKC beta1 expressed in baculovirus infected Sf9 cells using TMB as substrate incubated for 4.5 hrs by colorimetric analysis.

T1 sequence (P68403 whole entry): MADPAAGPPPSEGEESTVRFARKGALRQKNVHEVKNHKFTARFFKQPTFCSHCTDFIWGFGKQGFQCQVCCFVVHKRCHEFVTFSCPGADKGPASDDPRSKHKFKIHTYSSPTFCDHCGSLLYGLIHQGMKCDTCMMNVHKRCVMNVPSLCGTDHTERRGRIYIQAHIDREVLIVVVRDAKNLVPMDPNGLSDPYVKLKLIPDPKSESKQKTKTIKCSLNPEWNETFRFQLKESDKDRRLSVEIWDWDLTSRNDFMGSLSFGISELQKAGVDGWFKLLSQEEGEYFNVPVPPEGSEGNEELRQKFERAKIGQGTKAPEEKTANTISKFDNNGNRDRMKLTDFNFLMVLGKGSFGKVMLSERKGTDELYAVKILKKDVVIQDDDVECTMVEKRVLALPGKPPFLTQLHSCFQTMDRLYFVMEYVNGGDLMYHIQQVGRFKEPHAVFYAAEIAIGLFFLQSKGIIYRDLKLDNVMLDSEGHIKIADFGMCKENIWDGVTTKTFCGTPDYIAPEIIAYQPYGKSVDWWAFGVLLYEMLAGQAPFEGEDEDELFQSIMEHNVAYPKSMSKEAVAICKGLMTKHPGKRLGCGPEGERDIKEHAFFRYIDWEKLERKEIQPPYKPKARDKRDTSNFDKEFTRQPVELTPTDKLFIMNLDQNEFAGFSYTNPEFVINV

Broadly, the IC50 is the midpoint of a concentration-inhibition curve. As to `O=C1O/C(=C(/C(=O)O)c2ccc(O)c(O)c2)C(O)=C1c1ccc(O)c(O)c1`, the IC50 came out at 16.8 µM in assay [1], 20.1 µM in assay [2], 22.2 µM in assay [3] and 36.2 µM in assay [4]. In addition, the inhibition result in assay [4] is “Dose-dependent effect”.
